In patent US5166201A, “2β,19-ethylene bridged steroids as aromatase inhibitors” (Merrell Dow Pharmaceuticals Inc., priority 1990, dated 1992):

Molecular target: T1, aromatase (Homo sapiens, UniProt P11511)
T1 construct: microsomal protein per ml of assay buffer; from tissue; host or cells: microsomes
T1 sequence (P11511 1-503): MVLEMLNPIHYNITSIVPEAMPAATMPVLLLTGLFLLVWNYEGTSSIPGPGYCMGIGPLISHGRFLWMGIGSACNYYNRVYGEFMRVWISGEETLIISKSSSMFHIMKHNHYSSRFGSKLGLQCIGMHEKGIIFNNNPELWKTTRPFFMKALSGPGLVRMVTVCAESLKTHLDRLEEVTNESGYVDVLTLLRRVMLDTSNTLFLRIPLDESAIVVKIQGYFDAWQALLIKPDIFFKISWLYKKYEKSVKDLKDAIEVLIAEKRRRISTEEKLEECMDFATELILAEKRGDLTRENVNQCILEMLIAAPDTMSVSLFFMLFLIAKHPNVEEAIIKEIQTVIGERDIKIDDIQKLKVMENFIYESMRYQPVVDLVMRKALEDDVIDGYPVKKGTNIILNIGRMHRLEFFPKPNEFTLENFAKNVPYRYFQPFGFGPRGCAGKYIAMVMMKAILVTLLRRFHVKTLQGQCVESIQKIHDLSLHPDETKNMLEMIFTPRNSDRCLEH
Assay: time-dependent aromatase inhibition assay (preincubation, Kitz-Wilson analysis)
Format: biochemical
Method: In this assay, the inhibitor is preincubated with enzyme prior to assaying for activity in the presence of high substrate levels. A time-related decrease in enzyme activity can be indicative of irreversible binding […] a preferred method of inhibition.
In the time-dependent assay, an amount of the enzyme inhibitor in 100 μl of the assay buffer described above which will provide assay concentrations which are usually between 1 nM and 10 μm are added to 35-ml centrifuge tubes containing 600 μl of the NADPH generating system. The preincubation is started by the addition of 700 μl of aromatase preparation, usually 300-800 μg of microsomal protein per ml of assay buffer. These preparations are mixed using a vortex mixer and incubated for 0, 5, 10 or 20 minutes at 25° C. Then 100 μl of androstenedione (-6.8 μM) containing 1β-^3 H androstenedione is added in assay buffer to provide an assay concentration of substrate (0.55 μM) which is at least ten times the Km of androstenedione (0.04 μM). Following vortexing, the enzyme incubation is continued for 10 minutes before being terminated by the addition of chloroform. The amount of radioactivity in the aqueous fraction is determined by scintillation procedures. The enzymatic activity for each concentration of inhibitor at each time period of preincubation is calculated as a percent of the "0" minute vehicle control arbitrarily set at 100%. Therefore, the present enzyme inhibition is expressed as a percentage: (100 percent minus percent enzyme activity with inhibitor present).
Enzyme kinetic analysis utilized Kitz-Wilson plots for time-dependent assays. These analyses provide estimates of apparent Ki of inactivation which represents the inhibitor concentration required to produce half-maximal rate of enzyme inactivation. The pseudo first-order rate constant for enzyme inactivation (kcat) and the half-time of inactivation (.tau.50) of infinite inhibitor concentrations were determined. […]

C[C@]12CC[C@H]3[C@@H](CCC4=CC(=O)[C@H]5CCC[C@]43C5)[C@@H]1CCC2=O [2β,19-(ethylene)androst-4-ene-3,17-dione]
kinact/KI (Kitz-Wilson analysis, read-out: kcat /Ki (inactivation) ratio, index of efficiency of enzyme inactivation): 558000 M⁻¹ s⁻¹ | half-time of inactivation (.tau.50) at infinite inhibitor concentration (Kitz-Wilson plot, microsomal aromatase preparation, 25° C.): 0.87 min | KI (inactivation) (Kitz-Wilson plot, microsomal aromatase preparation, preincubation 0-20 min at 25° C., androstenedione 0.55 μM, read-out: apparent Ki of inactivation): 23.9 nM
